Data on 25 compounds can be found in patent US5039691A, “5-(1-(imidazol)methyl)-3,3-disubstituted-2(3H)furanone derivatives” (Marion Merrell Dow Inc., priority 1990, dated 1991).

For orientation: Kb means the affinity of an antagonist, worked out from how it opposes an agonist. Lower therefore signals a more potent antagonist. Usually ED50 stands for the dose that gives a 50% effect, or the effect in half of the subjects.

Structures are written as SMILES. Counter-ions that a name gives are not always drawn.

Common to all, as to set-up: species or system guinea pig
Test [1] deals with T1, muscarinic cholinergic receptors on intestinal (ileal-longitudinal) smooth muscle (Cavia porcellus, UniProt H0W1Z3).
T1 construct: The longitudinal muscle, with the myenteric plexus attached, is separated from the underlying circular muscle; from tissue; host or cells: guinea pig ileum, longitudinal smooth muscle with myenteric plexus
The test is described as follows: Antimuscarinic test: antagonism of carbachol contraction of isolated ileum (Muscarinic Antagonist Activity, Ileum). Particulars: carbachol agonist, 37° C.

The next test concerns Male Guinea pigs. Kind of test: Primary in vivo bronchodilator assay for muscarinic antagonists (reversal of carbachol bronchoconstriction). Particulars: cumulative dose causing 50% reversal of carbachol bronchoconstriction; for ED50: Cavia porcellus, iv; for Bronchodilator Activity ED50: i.v. The procedure: PRIMARY IN VIVO BRONCHODILATOR ASSAY FOR MUSCARINIC ANTAGONISTS Male Guinea pigs were anesthetized by urethane. The trachea, carotid artery and jugular vein were cannulated. Animals were ventilated with room air at a constant rate and volume. Airway pressure was measured from a side port of the tracheal catheter, and blood pressure and heart rate were monitored as well. After a stable baseline period, an aerosol of carbachol was administered via an ultrasonic nebulizer. Once the bronchoconstrictor response plateaued, test compound was given in increasing i.v. doses to cause graded, cumulative reductions in airway pressure. If more than a 50% reversal of bronchoconstriction occurred, an ED50 value for bronchodilator potency was calculated using a probit analysis. The ED50 was defined as the cumulative i.v. dose that caused a 50% reversal of bronchoconstriction.

Test [2] deals with T2, muscarinic cholinergic receptors on bladder detrusor muscle (Cavia porcellus, UniProt H0W1Z3).
T2 construct: The peritoneal cavity is opened and the bladder is held lightly at its apex; from tissue; host or cells: guinea pig urinary bladder, detrusor strips without mucosa
The test is described as follows: Antimuscarinic test: antagonism of carbachol contraction of isolated bladder (Muscarinic Antagonist Activity, Bladder). The note with it: bladder detrusor strips, carbachol agonist, 35° C. The protocol: ANTIMUSCARINIC TEST PROTOCOL
PREPARATION OF BLADDER FOR TESTING
Male albino guinea pigs are killed by decapitation or cervical dislocation. The peritoneal cavity is opened and the bladder is held lightly at its apex, stretched gently, and fat is lifted with fine forceps and dissected away in situ with blunt-tipped scissors as close to the surface of the bladder as possible. The tissue is placed in a latex-bottomed Petri dish that contains a modified Krebs solution (133 mM NaCl, 1.3 mM […], 16.3 mM NaHCO3, 4.7 mM KCl, 0.6 mM MgSO4.7H2 O, 2.5 mM CaCl2.2H2 O, 7.7 mM dextrose) and cut above the neck. The bladder is collapsed into a flat pouch, which is opened by two lateral incisions and unfolded to give a rectangular sheet of tissue approximately 2 cm long and 1 cm wide. The sheet is gently stretched and pinned to the bottom of the Petri dish. Blunt separation of the mucosa, which is visible as a looser superficial pink layer, is started at one end by carefully inserting the blades of micro dissecting scissors between the mucosa and muscle layers and using gentle spreading of the blades, together with steady traction with forceps to tease the two layers apart. Clean removal of the mucosa is usually possible without any fraying or tearing of the underlying muscle. The removal of the mucosa is considered essential for improving oxygen supply to the preparation and for providing better access on both sides of the thin muscle sheet for administered drugs (Ambache and Zar, J. Physiol. 210:671, 1970). The sheet is trimmed, if necessary, and cut longitudinally into four strips.
The strips are tied off with 5-0 silk suture and are then suspended in 10 mL water-jacketed glass tissue baths containing the Krebs solution maintained at 35° C. and aerated with 95% O2 /5% CO2. The suture connects each tissue to an isometric force-displacement transducer (Grass or Gould) coupled to a physiograph. Each preparation is suspended under a resting tension of 0.5 g and allowed to equilibrate for 36 minutes. During this period, the baths are emptied and filled every 12 minutes with 10 mL of warm Krebs buffer. At the end of this period, each muscle strip is conditioned by adding 10 μM carbachol to the baths. The drug remains in contact with each tissue for 1-2 minutes and then is removed by four rapid rinses of 10 mL of warm Krebs buffer. The preparations are allowed to recover for an additional 12 minutes before being used in experiments.
Carbachol is dissolved in saline to produce 2×10^-2 M stock concentrations. Serial dilutions (1:10) in saline or water are made from the stock solution. Appropriate volumes of these solutions are added cumulatively to the 10 mL tissue baths in order to obtain the desired bath concentrations.
PREPARATION OF TEST COMPOUNDS
Compounds that are soluble in water or saline are dissolved in these solvents to produce 2×10^-2 or 2×10^-3 M stock concentrations. Small amounts of IN HCl, NaOH, or 95% ethanol may be added for those agents that are not soluble in water or saline alone. Serial dilutions (1:10) in saline or water are made from the stock solution. Compounds that are insoluble in aqueous solvents are dissolved in dimethylsulfoxide (DMSO) to produce 4×10^-2 M stock solutions. Serial dilutions (1:10) in water are made from the stock solution. Other solvents may be used when appropriate and will be specifically described in the experimental procedure. Appropriate volumes are then added to the baths in order to obtain the desired bath concentrations.
Appropriate volumes of carbachol solutions are cumulatively added to the 10 mL tissue baths to increase the concentration of carbachol in the bath step-by-step without washing out after each single dose. With each concentration step, the tissue contracts isometrically. The next concentration is added only after the preceding contraction has reached a steady value. […]

T1 sequence (H0W1Z3 1-590): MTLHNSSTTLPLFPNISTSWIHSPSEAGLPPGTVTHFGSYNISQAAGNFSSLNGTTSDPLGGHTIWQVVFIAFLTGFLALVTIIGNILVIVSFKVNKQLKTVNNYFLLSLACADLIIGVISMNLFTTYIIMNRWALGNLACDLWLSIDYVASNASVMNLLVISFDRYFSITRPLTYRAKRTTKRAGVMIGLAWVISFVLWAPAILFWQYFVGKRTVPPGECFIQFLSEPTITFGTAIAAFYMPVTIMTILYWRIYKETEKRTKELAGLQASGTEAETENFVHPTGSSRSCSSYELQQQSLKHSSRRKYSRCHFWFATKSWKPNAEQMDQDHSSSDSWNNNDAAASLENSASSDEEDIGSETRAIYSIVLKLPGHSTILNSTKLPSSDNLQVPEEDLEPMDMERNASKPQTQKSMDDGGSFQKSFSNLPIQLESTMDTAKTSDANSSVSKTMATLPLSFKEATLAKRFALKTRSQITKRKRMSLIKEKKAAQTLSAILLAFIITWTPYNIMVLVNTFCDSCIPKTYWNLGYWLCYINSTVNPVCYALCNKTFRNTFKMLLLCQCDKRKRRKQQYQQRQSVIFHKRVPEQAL
T2 sequence (H0W1Z3 1-590): as above

Turning to `Cc1n(CC2CC(c3ccccc3)(c3ccccc3)C(=O)O2)cc[n+]1Cc1ccccc1` (stereo not shown) [5-[1-(2-Methyl-3-benzylimidazol)methyl]-4,5-dihydro-3,3-diphenyl-2(3H)furanone bromide], in test [1], the Kb came to 544 nM.
As to `CCc1nccn1CC1=CC(c2ccccc2)(c2ccccc2)C(=O)O1` [5-[1-(2-Ethylimidazol)methyl]-3,3-diphenyl-2(3H)furanone], in the test with Male Guinea pigs, the ED50 turned out to be 1.9 mg/kg. This compound also had a Kb in test [1] of 8.2 nM.
Turning to `O.O=C1OC(C[n+]2ccn3c2CCC3)CC1(c1ccccc1)c1ccccc1.[Cl-]` (stereo not shown) [6,7-Dihydro-1-[(2,3,4,5-tetrahydro-5-oxo-4,4-diphenyl-2-furanyl)methyl]-5H-pyrrolo[1,2-a]imidazolium chloride hydrate], the ED50 with Male Guinea pigs turned out to be 0.7 mg/kg. In addition, in test [1], the Kb turned out to be 33 nM.
The like results for `COCc1nccn1CC1CC(c2ccccc2)(c2ccccc2)C(=O)O1` (stereo not shown) [5-[1-[2-(2-Methoxymethyl)imidazol]methyl]-4,5-dihydro-3,3-diphenyl-2(3H)furanone hydrochloride hydrate] were, in that order, more than 10 mg/kg and 67 nM.
For the compound `O=C1OC(C[n+]2ccn3ccccc32)CC1(c1ccccc1)c1ccccc1` (stereo not shown) [1-[(2,3,4,5-Tetrahydro-5-oxo-4,4-diphenyl-2-furanyl)methyl]imidazo[1,2-a]pyridinium chloride hydrate], in test [1], the Kb is 45 nM. That is a double-digit nanomolar value.
Regarding `O=C1OC(Cn2cnc3ccccc32)CC1(c1ccccc1)c1ccccc1` (stereo not shown) [5-[(1-Benzimidazol)methyl]-4,5-dihydro-3,3-diphenyl-2(3H)furanone], the Kb in test [1] was 1280 nM. Against the preceding compound, the Kb is about 28-fold higher.
Consider `CC(C)c1n(CC2CC(c3ccccc3)(c3ccccc3)C(=O)O2)cc[n+]1C` (stereo not shown) [5-[1-(2-Isopropyl-3-methylimidazol-methyl]-4,5-dihydro-3,3-d] [5-[1-(2-Isopropyl-3-methylimidazol-methyl]-4,5-dihydro-3,3-diphenyl-2(3H)furanone bromide], for which the “Bronchodilator Activity ED50” value with Male Guinea pigs was found to be 0.007 mg/kg.
With `CC(C)c1n(CC2CC(c3ccccc3)(c3ccccc3)C(=O)O2)cc[n+]1C` (stereo not shown) [5-[1-(2-Isopropyl-3-methylimidazol-methyl]-4,5-dihydro-3,3-diphenyl-2(3H)furanone bromide], the figures for the Kb in test [2] and in test [1] were 0.7 nM and 2.9 nM, respectively.
Regarding `COCc1n(CC2CC(c3ccccc3)(c3ccccc3)C(=O)O2)cc[n+]1C` (stereo not shown) [5-[1-(2-Methoxymethyl-3-methylimidazol)methyl]-4,5-dihydro-3,3-diphenyl-2(3H)furanone iodide], the Kb in test [1] was 40 nM. This counts as double-digit nanomolar.
In test [1], `CCn1cc[n+](CC2CC(c3ccccc3)(c3ccccc3)C(=O)O2)c1` (stereo not shown) [5-[1-(Ethylimidazol)methyl]-4,5-dihydro-3,3-diphenyl-2(3H)furanone bromide] gave a Kb of 229 nM.
Turning to `COCCc1nccn1CC1CC(c2ccccc2)(c2ccccc2)C(=O)O1` (stereo not shown) [5-[1-(2-Methoxyethylimidazol)methyl]-4,5-dihydro-3,3-diphenyl-2(3H)furanone hydrochloride], the ED50 in the test on Male Guinea pigs is more than 10 mg/kg. This compound displayed a Kb in test [1] of 638 nM.
In test [1], `CCc1nc(C)cn1CC1CC(c2ccccc2)(c2ccccc2)C(=O)O1` (stereo not shown) [5-[1-(2-Ethyl-4-methylimidazol-methyl]-4,5-dihydro-3,3-diphenyl-2(3H)furanone hydrobromide] showed a Kb of 86 nM.
Take `CCCCc1nccn1CC1CC(c2ccccc2)(c2ccccc2)C(=O)O1` (stereo not shown) [5-[1-(2-n-Butylimidazol)methyl]-4,5-dihydro-3,3-diphenyl-2(3H)furanone]: the ED50 in the test with Male Guinea pigs was more than 10 mg/kg. In addition, the Kb in test [1] stood at 113 nM.
Take `Cc1n(CC2CC(c3ccccc3)(c3ccccc3)C(=O)O2)cc[n+]1C` (stereo not shown) [5-[1-(2,3-Dimethylimidazol)methyl]-4,5-dihydro-3,3-diphenyl-2(3H)furanone bromide]: the ED50 in the test on Male Guinea pigs is 0.85 mg/kg. Besides, in test [1], the Kb was found to be 71 nM.
`CC(C)(C)c1nccn1CC1CC(c2ccccc2)(c2ccccc2)C(=O)O1` (stereo not shown) [5-[1-(2-tert-Butylimidazol)methyl]-4,5-dihydro-3,3-diphenyl-2(3H)furanone hydrochloride]: the ED50 in the test with Male Guinea pigs amounted to 0.14 mg/kg. This compound came in with a Kb in test [1] of 3.3 nM.
Turning to `CCOCc1nccn1CC1CC(c2ccccc2)(c2ccccc2)C(=O)O1` (stereo not shown) [5-[1-(2-Ethoxymethylimidazol)methyl]-4,5-dihydro-3,3-diphenyl-2(3H)furanone], in the test with Male Guinea pigs, the ED50 is more than 10 mg/kg. The compound further registered a Kb in test [1] of more than 1000 nM.
In the case of `O=C1OC(Cn2ccnc2Cc2ccccc2)CC1(c1ccccc1)c1ccccc1` (stereo not shown) [5-[1-(2-Benzylimidazol)methyl]-4,5-dihydro-3,3-diphenyl-2(3H)furanone hydrochloride], the Kb in test [1] turned out to be 223 nM.
Regarding `CC(C)c1n(CC2CC(c3ccccc3)(c3ccccc3)C(=O)O2)cc[n+]1C` (stereo not shown) [5-[1-(2-Isopropyl-3-methylimidazol)methyl]-4,5-dihydro-3,3-d] [5-[1-(2-Isopropyl-3-methylimidazol)methyl]-4,5-dihydro-3,3-diphenyl-2(3H)furanone iodide], the “Bronchodilator Activity ED50” value with Male Guinea pigs is listed as 0.06 mg/kg.
As for `O=C1OC(Cn2ccnc2-c2ccccc2)CC1(c1ccccc1)c1ccccc1` (stereo not shown) [5-[1-(2-Phenylimidazol)methyl]-4,5-dihydro-3,3-diphenyl-2(3H)furanone], the ED50 in the test with Male Guinea pigs was more than 6 mg/kg. This compound also registered a Kb in test [1] of 5920 nM.
As to `COCCc1n(CC2CC(c3ccccc3)(c3ccccc3)C(=O)O2)cc[n+]1C` (stereo not shown) [5-[1-(2-Methoxyethyl-3-methylimidazol)methyl]-4,5-dihydro-3,3-diphenyl-2(3H)furanone iodide hydrate], in test [1], the Kb came to 39 nM.
As for `Cc1cccn2cc[n+](CC3CC(c4ccccc4)(c4ccccc4)C(=O)O3)c12` (stereo not shown) [1-[(2,3,4,5-Tetrahydro-5-oxo-4,4-diphenyl-2-furanyl)methyl]-8-methylimidazo[1,2-a]pyridinium chloride hydrate], in test [1], the Kb was 74 nM. Against the preceding compound, the Kb is about 1.9-fold higher.
Still for that read-out and setting: for `O=C1OC(Cn2ccnc2)CC1(c1ccccc1)c1ccccc1` (stereo not shown) [5-[(1-Imidazol)methyl]-4,5-dihydro-3,3-diphenyl-2(3H)furanone] the value was 373 nM; for `COC(=O)c1nccn1CC1CC(c2ccccc2)(c2ccccc2)C(=O)O1` (stereo not shown) [5-[1-(2-Carbomethoxyimidazol)methyl]-4,5-dihydro-3,3-diphenyl-2(3H)furanone hydrochloride], 435 nM.
On to `O=C1OC(C[N+]2=C3CCCCCN3CCC2)CC1(c1ccccc1)c1ccccc1` (stereo not shown) [5-[(1,8-Diazabicyclo[5.4.0]undec-7-en-8-yl)methyl]-4,5-dihydro-3,3-diphenyl-2(3H)furanone chloride hydrate], for which, in the test on Male Guinea pigs, the ED50 was more than 10 mg/kg. Further, in test [1], the Kb was more than 1000 nM.
The corresponding values for `CC(C)Cc1nccn1CC1CC(c2ccccc2)(c2ccccc2)C(=O)O1` (stereo not shown) [5-[1-(2-Isobutylimidazol)methyl]-4,5-dihydro-3,3-diphenyl-2(3H)furanone hydrochloride] are more than 10 mg/kg and 489 nM.
